Reference: patent EP0504938A2, “Prophylactic and therapeutic agent for bone diseases comprising di- or tripeptide derivative as active ingredient” (SUNTORY LIMITED, priority 1991, dated 1992)
Non-standard residues stand in square brackets, D forms with d. Residues, ends and D or L forms follow the SMILES beside them. *: point of attachment. Nle = CCCC[C@H](N)C(=O)O; Cbz = O=C(OCc1ccccc1)*

Experiments:
[1] = test system: rat hypercalcemia induced by PTHrp(1-34); assay: Rat hypercalcemia induced by PTHrp(1-34), oral administration; assay type: in vivo, male Wistar rats; settings: 4 hours before PTHrp(1-34) 5 nmole/kg i.v., blood 1 hour after PTHrp, n = 5
Protocol: To male Wistar rats aged 5 weeks (70 - 90 g, 5 animals in each group), 40 mg/kg body weight of the compounds listed in Table 2 and 40 and 80 mg/kg body weight of the compounds listed in Table 3 were orally administered. After 4 hours, 5 nmole/kg of PTHrp(1-34) was intravenously injected into the animals.
One hour after the administration of PTHrp(1-34), a blood sample was collected from each rat and the blood calcium concentration was determined by the octocresolphthalein complexone method.

[2] = test system: secondary hyperparathyroidism; assay: Secondary hyperparathyroidism, calcium-deficient diet model; assay type: in vivo, male Wistar rats; settings: 40 mg/kg oral after 5 days calcium-deficient diet; blood 5 hours after administration
Protocol: In a calcium-deficient diet model system of rats, parathyroid hormone is released in order to maintain the blood calcium concentration within a normal range. In other words, the parathyroid hormone induces bone resorption so that the blood calcium concentration is maintained within a normal range.
Taking advantage of the above-mentioned model system, male Wistar rats aged 5 weeks (70 - 90 g, 5 animals in each group) were fed on calcium-deficient diet for 5 days. After fasting overnight, 40 mg/kg body weight of the compounds listed in Table 1 were orally administered to the rats. 5 hours after the administration of the drugs, the blood calcium concentration of each animal was determined by the same method as the one employed in Example 1.

[3] = test system: rat hypercalcemia induced by PTHrp(1-34); assay: Rat hypercalcemia induced by PTHrp(1-34), intraperitoneal administration; assay type: in vivo, male Wistar rats; settings: 10 mg/kg intraperitoneal; for Ca conc. ± standard error: blood 1 hour after PTHrp, n = 5
Protocol: To male Wistar rats aged 5 weeks (70 - 90 g, 5 animals in each group), 10 mg/kg body weight of Compound 1 was intraperitoneally administered 0.5, 1, 2 and 4 hours before the administration of PTHrp(1-34). PTHrp(1-34) was intravenously injected into the animals at the level of 5 nmole/kg. One hour after the administration of PTHrp(1-34), a blood sample was collected from each animal and the blood calcium concentration was determined by the same method as the one employed in Example 1.

[4] = Acute toxicity, intraperitoneal; assay type: in vivo; settings: 2 g/kg intraperitoneally, rats

| Structure (SMILES) | Ca conc. ± standard error ([1]; 40 mg/kg oral) [mg/dL] | Ca conc. ± standard error ([1]; 80 mg/kg oral) [mg/dL] | blood calcium concentration (result in words) [2] | other results |
| --- | --- | --- | --- | --- |
| CCCC[C@@H](C=O)NC(=O)[C@H](CC(C)C)NC(=O)[C@H](CC(C)C)NC(=O)OCc1ccccc1 [Compound 23, N-Benzyloxycarbonyl-leucyl-leucyl-norleucinal] (Cbz-Leu-Leu-[Nle]-aldehyde) | 9.53 ± 0.08 | 9.28 ± 0.66 |  |  |
| CCCCC(C=O)NC(=O)C(CC(C)C)NC(=O)OCc1ccc(Cl)cc1 (centres unmarked) [Compound 8] |  |  | significantly reduced |  |
| CCCCC(C=O)NC(=O)C(CC(C)C)NC(=O)OCc1ccc(OC)cc1 (centres unmarked) [Compound 9] |  |  | significantly reduced |  |
| CSCC[C@@H](C=O)NC(=O)[C@H](CC(C)C)NC(=O)[C@H](CC(C)C)NC(C)=O [Compound 21, N-Acetyl-leucyl-leucyl-methioninal] (Ac-Leu-Leu-Met-aldehyde) | 9.78 ± 0.08 | 9.61 ± 0.13 |  |  |
| CCCC[C@@H](C=O)NC(=O)[C@H](CC(C)C)NC(=O)[C@H](CC(C)C)NC(C)=O [Compound 22, N-Acetyl-leucyl-leucyl-norleucinal] (Ac-Leu-Leu-[Nle]-aldehyde) | 9.49 ± 0.20 | 9.52 ± 0.11 |  |  |
| CCCCC(C=O)NC(=O)C(CC(C)C)NC(=O)OC(C)(C)C (centres unmarked) [Compound 6] |  |  | significantly reduced |  |
| CCCCC(C=O)NC(=O)C(CC(C)C)NC(=O)OCC(Cl)(Cl)Cl (centres unmarked) [Compound 11] |  |  | significantly reduced |  |
| CCCCC(C=O)NC(=O)C(CC(C)C)NP(=S)(c1ccccc1)c1ccccc1 (centres unmarked) [Compound 15] |  |  | significantly reduced |  |
| CC(C)CC(NC(=O)C1OC1C(=O)O)C(=O)NCCCCNC(=N)N [Compound E-64, L-trans-epoxysuccinyl-L-leucineamide-(e-guanide)-butane, reference compound] | 9.69 ± 0.21 | 9.61 ± 0.12 |  |  |
| CCCC[C@@H](C=O)NC(=O)[C@H](CC(C)C)NC(=O)OCc1ccccc1 [Compound 1, N-benzyloxycarbonyl-leucyl-norleucinal] |  |  |  | suppression of the increase in the blood calcium concentration (result in words) ([3]; 0.5 to 4 hours before PTHrp(1-34)): continuously effected significant suppression; Ca conc. ± standard error ([3]; 0.5 hr before PTHrp(1-34)): 11.74 ± 0.07 mg/dL; Ca conc. ± standard error ([3]; 1 hr before PTHrp(1-34)): 11.28 ± 0.07 mg/dL; Ca conc. ± standard error ([3]; 2 hr before PTHrp(1-34)): 11.56 ± 0.09 mg/dL; Ca conc. ± standard error ([3]; 4 hr before PTHrp(1-34)): 11.91 ± 0.09 mg/dL; acute toxicity (general conditions, mortality) [4]: neither any change in the general conditions of the animals nor any mortal case was observed |
| CCCCC(C=O)NC(=O)C(CC(C)C)NC(=O)CCCc1ccccc1 (centres unmarked) [Compound 2] |  |  | significantly reduced |  |
